Data taken from patent publication US8722849B2, “Polypeptides” (Novo Nordisk A/S, priority 2011, dated 2014).
Values after ≈ are worked out from the molar mass of the structure shown. Like-named read-outs stand apart in the source and are kept apart here. Starred links: 1 amine or outer side, 2 acyl side, 3 side chain; linkers in the order of their positions; H or OH if unused. Positions of bridges follow the written chain, without caps; N, C: chain ends. Residues, ends and D or L forms follow the SMILES beside them. *: point of attachment. C20 diacid = O=C(O)CCCCCCCCCCCCCCCCCCC(=O)*; γGlu = O=C(O)[C@H](CCC(=O)[*:2])N[*:1]

Assays:
[1] = Assay (IV) determination of solubility; format: physicochemical
Outline: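 Eight 100 mM buffers (glycylglycine pH 3.0–5.0, bistrispropane pH 6.0–8.0) each received an equal volume of polypeptide dissolved in water at ~500 nmol/ml. Soluble polypeptide was measured by HPLC following 18 hours at room temperature and centrifugation.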

[2] = biological target: T1, human amylin receptor (amylin 3(a) receptor: human calcitonin receptor + RAMP-3) (Homo sapiens, UniProt O60896+P30988); test: Assay (II)a functional CRE-luciferase assay, human amylin receptor; format: cell-based; settings: Table 2; BHK amylin 3(a)-receptor/CRE-luc cells
T1 construct: expressed in transfected cells; host or cells: BHK570
T1 sequence (P30988 25-474): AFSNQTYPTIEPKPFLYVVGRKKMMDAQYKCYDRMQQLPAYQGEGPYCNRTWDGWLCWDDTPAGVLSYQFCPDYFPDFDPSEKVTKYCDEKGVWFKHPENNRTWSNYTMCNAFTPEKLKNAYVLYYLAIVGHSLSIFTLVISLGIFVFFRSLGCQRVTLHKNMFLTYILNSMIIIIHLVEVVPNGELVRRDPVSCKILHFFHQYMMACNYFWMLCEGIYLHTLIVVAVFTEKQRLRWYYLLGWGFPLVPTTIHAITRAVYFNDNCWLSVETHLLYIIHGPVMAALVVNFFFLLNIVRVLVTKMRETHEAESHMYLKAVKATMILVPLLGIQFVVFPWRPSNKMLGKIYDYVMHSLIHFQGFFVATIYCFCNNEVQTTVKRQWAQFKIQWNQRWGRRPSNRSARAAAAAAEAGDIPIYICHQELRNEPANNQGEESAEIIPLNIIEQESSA
T1 sequence (O60896 24-148 partner): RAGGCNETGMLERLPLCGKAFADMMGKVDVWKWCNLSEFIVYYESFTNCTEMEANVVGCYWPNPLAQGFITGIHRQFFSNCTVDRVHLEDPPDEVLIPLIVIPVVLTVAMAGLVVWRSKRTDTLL

[3] = biological target: T2, human calcitonin receptor (Homo sapiens, UniProt P30988); test: Assay (II)a functional CRE-luciferase assay, human calcitonin receptor; format: cell-based; settings: Table 7; human calcitonin (CTa) receptor
T2 construct: expressed in transfected cells; host or cells: BHK570
T2 sequence (P30988 25-474): T1 sequence (P30988 25-474)

[4] = bistrispropane buffer, pH 6, pH 6.0, read-out: Solubility pH 6.0
[5] = bistrispropane buffer, pH 6.5, pH 6.5, read-out: Solubility pH 6.5
[6] = bistrispropane buffer, pH 7.5, pH 7.5, read-out: Solubility pH 7.5
[7] = bistrispropane buffer, pH 8, pH 8.0, read-out: Solubility pH 8.0
[8] = glycylglycine buffer, pH 3, pH 3.0, read-out: Solubility pH 3.0
[9] = glycylglycine buffer, pH 4, pH 4.0, 18 hours at room temperature, Table 2, read-out: Solubility pH 4.0
[10] = glycylglycine buffer, pH 4, pH 4.0, read-out: Solubility pH 4.0
[11] = glycylglycine buffer, pH 5, pH 5.0, read-out: Solubility pH 5.0

Row | solubility at 18 h [1, 4] | solubility at 18 h [1, 5] | solubility at 18 h ([1]; bistrispropane buffer, pH 7, pH 7.0, 18 hours at room temperature, Table 3, read-out: Solubility pH 7.0) | solubility at 18 h ([1]; bistrispropane buffer, pH 7, pH 7.0, Table 8, read-out: Solubility pH 7.0) | solubility at 18 h ([1]; bistrispropane buffer, pH 7, pH 7.0, Table 9, read-out: Solubility pH 7.0) | solubility at 18 h ([1]; bistrispropane buffer, pH 7, pH 7.0, read-out: Solubility pH 7.0) | solubility at 18 h ([1]; bistrispropane buffer, pH 7.5, pH 7.5, Table 9, read-out: Solubility pH 7.5) | solubility at 18 h [1, 6] | solubility at 18 h [1, 7] | solubility at 18 h [1, 8] | solubility at 18 h [1, 9] | solubility at 18 h [1, 10] | solubility at 18 h [1, 11] | EC50 [2] | EC50 [3] | solubility at 18 h ([1]; pH 8.0, read-out: Solubility pH 8.0) | SMILES
1 | > 200 µM | > 200 µM | > 200 µM | > 200 µM | > 200 µM | > 200 µM | > 200 µM | > 200 µM | > 200 µM | > 200 µM | > 200 µM | > 200 µM | > 200 µM | 0.117 nM | 0.606 nM |  | CC[C@H](C)[C@H](NC(=O)[C@@H]1CCCN1C(=O)CNC(=O)[C@H](Cc1ccccc1)NC(=O)[C@H](CC(N)=O)NC(=O)[C@H](CC(N)=O)NC(=O)[C@H](CO)NC(=O)[C@H](CO)NC(=O)[C@H](Cc1c[nH]cn1)NC(=O)[C@H](CCCNC(=N)N)NC(=O)[C@H](CC(C)C)NC(=O)[C@H](Cc1ccccc1)NC(=O)[C@H](CCC(=O)O)NC(=O)[C@H](C)NC(=O)[C@H](CC(C)C)NC(=O)[C@H](CCCNC(=N)N)NC(=O)[C@H](CCC(N)=O)NC(=O)[C@@H](NC(=O)[C@H](C)NC(=O)[C@@H]1CSSC[C@H](NC(=O)[C@H](CCCCN)NC(=O)[C@H](CCC(=O)O)NC(=O)CC[C@H](NC(=O)CCCCCCCCCCCCCCCCCCC(=O)O)C(=O)O)C(=O)N[C@@H](CC(N)=O)C(=O)N[C@@H]([C@@H](C)O)C(=O)N[C@@H](C)C(=O)N[C@@H]([C@@H](C)O)C(=O)N1)[C@@H](C)O)C(=O)N[C@@H](CC(C)C)C(=O)N1CCC[C@H]1C(=O)N1CCC[C@H]1C(=O)N[C@H](C(=O)N[C@@H](CC(N)=O)C(=O)N[C@H](C(=O)NCC(=O)N[C@@H](CO)C(=O)N[C@@H](Cc1c[nH]cn1)C(=O)N[C@H](C(=O)N[C@@H](Cc1ccc(O)cc1)C(N)=O)[C@@H](C)O)C(C)C)[C@@H](C)O [Example 58, N-alpha-[(S)-4-Carboxy-4-(19-carboxynonadecanoylamino)butyryl]-Glu-[Glu14,Arg17,His35]-pramlintide] ({C20 diacid-γGlu}-EKCNTATCATQRLAEFLRHSSNNFGPILPPTNVGSHTY-NH2; disulfide 3-8 (inferred); C-terminus assumed)
2 | > 200 µM | 6 µM (≈ 28.7 µg/mL) |  |  |  |  |  | 6 µM (≈ 28.7 µg/mL) | 55 µM (≈ 263 µg/mL) | > 200 µM | > 200 µM | > 200 µM | > 200 µM | 0.603 nM | 0.543 nM |  | CC[C@H](C)[C@H](NC(=O)[C@@H]1CCCN1C(=O)CNC(=O)[C@H](Cc1ccccc1)NC(=O)[C@H](CC(N)=O)NC(=O)[C@H](CC(N)=O)NC(=O)[C@H](CO)NC(=O)[C@H](CO)NC(=O)[C@H](Cc1c[nH]cn1)NC(=O)[C@H](Cc1c[nH]cn1)NC(=O)[C@H](CC(C)C)NC(=O)[C@H](Cc1ccccc1)NC(=O)[C@H](CCC(=O)O)NC(=O)[C@H](C)NC(=O)[C@H](CC(C)C)NC(=O)[C@H](CCCNC(=N)N)NC(=O)[C@H](CCC(N)=O)NC(=O)[C@@H](NC(=O)[C@H](C)NC(=O)[C@@H]1CSSC[C@H](NC(=O)[C@H](Cc2c[nH]cn2)NC(=O)[C@H](Cc2c[nH]cn2)NC(=O)[C@H](Cc2c[nH]cn2)NC(=O)CC[C@H](NC(=O)CCCCCCCCCCCCCCCCCCC(=O)O)C(=O)O)C(=O)N[C@@H](Cc2c[nH]cn2)C(=O)N[C@@H]([C@@H](C)O)C(=O)N[C@@H](C)C(=O)N[C@@H]([C@@H](C)O)C(=O)N1)[C@@H](C)O)C(=O)N[C@@H](CC(C)C)C(=O)N1CCC[C@H]1C(=O)N1CCC[C@H]1C(=O)N[C@H](C(=O)N[C@@H](CC(N)=O)C(=O)N[C@H](C(=O)NCC(=O)N[C@@H](CO)C(=O)N[C@@H](Cc1c[nH]cn1)C(=O)N[C@H](C(=O)N[C@@H](Cc1ccc(O)cc1)C(N)=O)[C@@H](C)O)C(C)C)[C@@H](C)O [Example 32, N-alpha-[(S)-4-Carboxy-4-(19-carboxynonadecanoylamino)butyryl]-His-His-[His1,His3,Glu14,His17,His35]-pramlintide] ({C20 diacid-γGlu}-HHHCHTATCATQRLAEFLHHSSNNFGPILPPTNVGSHTY-NH2; disulfide 4-9 (inferred))
3 | > 200 µM | 87 µM (≈ 416 µg/mL) |  |  |  |  |  |  |  | > 200 µM | > 200 µM | > 200 µM | > 200 µM | 0.192 nM | 0.429 nM | 1 µM (≈ 4.78 µg/mL) | CC[C@H](C)[C@H](NC(=O)[C@@H]1CCCN1C(=O)CNC(=O)[C@H](Cc1ccccc1)NC(=O)[C@H](CC(N)=O)NC(=O)[C@H](CC(N)=O)NC(=O)[C@H](CO)NC(=O)[C@H](CO)NC(=O)[C@H](Cc1c[nH]cn1)NC(=O)[C@H](Cc1c[nH]cn1)NC(=O)[C@H](CC(C)C)NC(=O)[C@H](Cc1ccccc1)NC(=O)[C@H](CCC(=O)O)NC(=O)[C@H](C)NC(=O)[C@H](CC(C)C)NC(=O)[C@H](CCCNC(=N)N)NC(=O)[C@H](CCC(N)=O)NC(=O)[C@@H](NC(=O)[C@H](C)NC(=O)[C@@H]1CSSC[C@H](NC(=O)[C@H](Cc2c[nH]cn2)NC(=O)[C@H](Cc2c[nH]cn2)NC(=O)[C@H](Cc2c[nH]cn2)NC(=O)CC[C@H](NC(=O)CCCCCCCCCCCCCCCCCCC(=O)O)C(=O)O)C(=O)N[C@@H](CC(N)=O)C(=O)N[C@@H]([C@@H](C)O)C(=O)N[C@@H](C)C(=O)N[C@@H]([C@@H](C)O)C(=O)N1)[C@@H](C)O)C(=O)N[C@@H](CC(C)C)C(=O)N1CCC[C@H]1C(=O)N1CCC[C@H]1C(=O)N[C@H](C(=O)N[C@@H](CC(N)=O)C(=O)N[C@H](C(=O)NCC(=O)N[C@@H](CO)C(=O)N[C@@H](CCCNC(=N)N)C(=O)N[C@H](C(=O)N[C@@H](Cc1ccc(O)cc1)C(N)=O)[C@@H](C)O)C(C)C)[C@@H](C)O [Example 21, N-alpha-[(S)-4-Carboxy-4-(19-carboxynonadecanoylamino)butyryl]-His-His-[His1,Glu14,His17,Arg35]-pramlintide] ({C20 diacid-γGlu}-HHHCNTATCATQRLAEFLHHSSNNFGPILPPTNVGSRTY-NH2; disulfide 4-9 (inferred))
